Results taken from US6423752B1, “Indane dimer compounds with smooth muscle relaxing and/or mast cell stabilizing and/or anti-inflammatory activity” (Venantius Limited, priority 1995, dated 2002).
Where two headings read alike, the source gives them in different places.

How the values were obtained:
mast cells = test: Histamine release assay (compound 48/80 stimulated mast cells); format: cell-based, Wistar rats; conditions: 2 × 10^−5 M, rat peritoneal mast cells; for inhibition at 20 µM: Rattus norvegicus, Mast cell, read-out: Percentage Inhibition of Histamine Release
Method: (§1) The compounds were assessed for their ability to stabilize mast cell membranes in vitro. Mast cells treated with the compounds and un-treated mast cells were stimulated to release histamine. A reduction in histamine release by the treated cells compared to the untreated cells indicates stabilisation of the membrane. The compounds were assessed for their ability to relax smooth muscle in vitro. Intestinal smooth muscle was stimulated to contract, using calcium chloride and subsequently treated with the compounds, relaxation of the contraction was measured for each compound. The effects of the compounds were also studied on relaxation of guinea-pig tracheal muscle. In the rat paw oedema test, the drugs were administered systemically prior to inducing inflammation by the injection of carageenan below the plantar aponeurosis of the hind paw. The volume of the paw was determined both before and after treatment as an index of oedema. In the mouse ear oedema test, the drugs were administered topically prior to inducing inflammation by the topical application of arachidonic acid. The width of the ear was determined both before and after treatment as an index of oedema.
The buffered salt solution (BSS) was prepared in advance (NaCl 137 mM; KCl 2.7 mM; MgCl2 1.0 mM; CaCl2 0.5 mM, NaH2PO4 0.4 mM; Glucose 5.6 mM; HEPES 10 mM). This was dispensed into test tubes and heated to 37° C., each test tube contained 4.5 ml BSS. The solvent blank was supplemented with 0.5% (v/v) dimethyl sulphoxide (DMSO) or 0.5% (v/v) distilled water (dH2O). The two positive controls were supplemented with 0.5% (v/v) dH2O/2×10^−5M disodium cromoglycate (DSCG) and 0.5% (v/v) DMSO/2×10^−5M DSCG. The test compounds' incubation tubes contained 2×10^−5M test compound/0.5% (v/v) DMSO. The basal release, maximum release and total histamine content incubation tubes contained no additions.
Female Wistar rats (200-300 g) were killed in an atmosphere of saturated CO2. Pre-warmed BSS (10 ml) was injected i.p. and the abdomen was massaged for 3 min. The BSS, with suspended mast cells and other cells, was aspirated following a mid-line incision. The aspirate was centrifuged for 5 min at 400 g and the supernatant removed. The cells were re-suspended in BSS, at 4° C., and centrifuged as before the cells were washed in this manner a total of three times. Following the final wash, the pelleted cells were stored at 4° C., for use as soon as possible.
The cells were re-suspended in 7 ml BSS. From this, 0.5 ml aliquots were transferred to each of the incubation tubes. After 10 min at 37° C. with gentle agitation, Compound 48/80 was added to a final concentration of […], in order to stimulate histamine release. The cell stimulation was stopped after 2 min by the addition of 0.5 ml ice cold BSS, the incubation tubes were transferred to an ice bath. The cell suspensions were centrifuged for 5 min at 400 g. The “total histamine content” tube was placed at 100° C. for 2 min prior to centrifugation. The supernatants were retained for histamine assay.
To 2 ml of supernatant from each tube was added 0.4 ml of 1M NaOH and 0.1 ml oPT (1% (w/v) in methanol). This was incubated at room temperature for 4 min. The reaction was stopped by the addition of 0.2 ml of 3M HCl. The supernatant from each incubation tube was assayed in duplicate and run simultaneously with a standard curve in the range 0-1000 ng/ml. The presence of the fluorescent product of the reaction was measured using a Shimazu RF-1501 spectrofluorophotometer set at λex=360 nm, λem=450 nm.
Each drug was tested on at least five animals (n=5). The results were expressed as a percentage of maximum, compound 48/80 induced, histamine release in the solvent blank sample. Each drug was compared to DSCG on the same tissues. The basal histamine release in untreated cells was noted, expressed as a percentage of the total histamine content of the cells in suspension. […]

ileum = test: Smooth muscle effects: CaCl2 induced contractions of ileum; set-up: species or system Guinea pigs; conditions: for inhibition at 10 µM / inhibition at 3 µM / inhibition at 0.3 µM / inhibition at 0.03 µM / inhibition at 1 µM / inhibition at 0.1 µM: Cavia porcellus, read-out: Percentage Inhibition of CaCl2 Induced Contractions
Method: as §1
(§2) Guinea pigs (350 g approx.), of either sex, were killed in an atmosphere of saturated CO2. The abdomen was opened by a mid-line incision and the small intestine was removed. The trachea was removed and sectioned between the cartilage rings, which were then split through.
(§3) Segments of ileum (1-1.5 cm) were suspended in a high potassium, no calcium Krebs buffer (NaCl 160.44 mM); KCl 45 mM; MgCl2 0.54 mM; NaH2PO4 0.89 mM; NaH2CO3 24.9 mM; Glucose 11.1 mM). Tracheal sections were suspended in normal Krebs buffer (NaCl […]; KCl 4.7 mM; CaCl2 2.5 mM; MgCl2 0.54 mM; NaH2PO4 0.89 mM; NaHCO3 24.9 mM; Glucose 11.1 mM). The solutions were maintained at 37° C. by a jacketed organ bath and gassed with 95% O2 and 5% CO2. The tissues were anchored by thread to the bottom of the organ bath and suspended from force displacement transducers under a resting tension of 1 g approx. in the case of ileum and 4 g approx. in the case of trachea. Isotonic contractions were recorded using a MacLab/4e system in conjunction with the Chart 3.3.1 software package. Surplus tissue was stored at 4° C. in Krebs buffer, for a maximum of 48 hours.
(§4) Four segments of tissue were suspended and observed concurrently. Contractions were initiated by the addition of 25 μl of 1M CaCl2 (a final concentration of 2.5 mM). The contractions stabilized with time, 10-15 min, and could be maintained for up to 45 min. from the addition of the CaCl2. The tracheal sections were allowed to develop spontaneous resting tension over a period of 30 mins.
Stock solutions of drug were prepared at 10^−3M in 50% (v/v) DMSO. These were diluted to give; 10^−4M in 5% (v/v) DMSO and 10^−5M in 0.5% (v/v) DMSO. In cases of poor solubility the 10^−3M stock was made up in higher concentrations of DMSO. Solvent ‘blank’ solutions were prepared containing 50%, 5% and 0.5% (v/v) DMSO (or as appropriate). […] A second cumulative dose-response assay was carried out using DMSO ‘blank’ solutions only.
(§5) Each drug was tested, in duplicate, on at least three different animals (n=3). The results were expressed as percentage inhibition of the CaCl2 induced contraction in the case of ideal tissue and percentage relaxation in the case of tracheal tissue, for each tissue, at each concentration of drug in DMSO. The effect of DMSO, for each tissue at each concentration, was subtracted from the effect of the drug in DMSO, to give the effect of the drug alone. A log dose vs. response curve was plotted for each drug using the mean and the standard error of the mean for the cumulated results.

trachea = test: Smooth muscle effects: spontaneous tone of tracheal sections; set-up: species or system Guinea pigs; conditions: guinea pig trachea, percentage relaxation; for inhibition at 3 µM / inhibition at 10 µM: Cavia porcellus
Method: as §1, §2, §3, §4
Stock solutions of drug were prepared at 10^−3M in 50% (v/v) DMSO. These were diluted to give; 10^−4M in 5% (v/v) DMSO and 10^−5M in 0.5% (v/v) DMSO. In cases of poor solubility the 10^−3M stock was made up in higher concentrations of DMSO. Solvent ‘blank’ solutions were prepared containing 50%, 5% and 0.5% (v/v) DMSO (or as appropriate). A cumulative dose-response assay was carried out in the range 5×10^−8M to 10^−5M. A second cumulative dose-response assay was carried out using DMSO ‘blank’ solutions only.
as §5

mouse ear oedema = test: Mouse ear oedema model (arachidonic acid induced); format: in vivo, Laca mice; conditions: 300 μg per ear topically 30 min prior to 400 μg arachidonic acid; 1 hour after arachidonic acid; n=4
Method: as §1
The mouse ear oedema model was performed using Laca mice (25-35 g), of either sex. The animals were sedated with fentanyl/fluanisone (Hypnorm, Janssen). One ear was treated by the topical application of one of a range of test compounds, indomethacin or dexamethasone (all at 300 μg ear in acetone) drug. After 30 min, oedema was induced by the topical application of arachidonic acid (10 μl at […] in acetone). The thickness of each ear was measured, both before and 60 min after the induction of oedema, using a micrometer screw gauge. Ear oedema was calculated by comparing the ear width before and after induction of oedema and expressed as percentage normal.
Responses of the mouse ear to single doses of a range of compounds compared to the response to indomethacin and dexamethasone, each at a dose of 300 μg per ear administered topically 30 min prior to administration of 400 μg of arachidonic acid. Values are expressed as the percentage increase in ear thickness 1 hour after administration of arachidonic acid (all n=4, solvent controls (n=8)).

[1] = 3 × 10^−6 M, guinea pig ileum, DMSO effect subtracted
[2] = 10^−5 M, guinea pig ileum, DMSO effect subtracted

Compound | inhibition at 20 µM (mast cells) | inhibition at 10 µM (ileum; [2]) | inhibition at 3 µM (trachea; 3 × 10^−6 M) | inhibition at 10 µM (trachea; 10^−5 M) | inhibition at 3 µM (ileum; [1]) | percentage increase in ear thickness (Mean %) (mouse ear oedema) | other results
C=CCN(C1CC(=O)c2ccccc21)[C@H]1CCc2ccccc21 (stereo partly drawn) [5C6 TS] | 75.2% | 19.4% | 1.63% | 2.71% | – | – | Percentage Inhibition of CaCl2 Induced Contractions (ileum; [1]): 5.29%
CC(=O)N(C1CCc2ccccc21)C1CC(=O)c2ccccc21 (stereo not drawn) [Compound 5C9, N-1-Indanyl-N-3-indan-1-onylethanamide] | 14.3% | 18.3% | 2.64% | 2.38% | 9.06% | – | –
C=CCN(C1CC(=O)c2ccccc21)[C@H]1CCc2ccccc21 (stereo partly drawn) [5C6 BS] | – | – | – | – | – | – | Percentage Inhibition of Histamine Release (mast cells): 80.29%; Percentage Inhibition of CaCl2 Induced Contractions (ileum; [1]): 13.66%; Percentage Inhibition of CaCl2 Induced Contractions (ileum; [2]): 31.47%; Percentage Inhibition of Spontaneous Tone (trachea; 3 × 10^−6 M): 2.03%; Percentage Inhibition of Spontaneous Tone (trachea; 10^−5 M): 4.09%
C[C@@H]1C[C@H]2[C@@H]3CCC4=CC(=O)C=C[C@]4(C)[C@@]3(F)[C@@H](O)C[C@]2(C)[C@@]1(O)C(=O)CO [Dexamethasone, reference compound] | – | – | – | – | – | 37.9% | –
CN(C1Cc2ccccc2C1)C1CC(=O)c2ccccc21 (stereo not drawn) [Compound 6C6, 3-(N-methyl-N-2-indanylamino)-indan-1-one] | 68% | 22.9% | – | – | 12.6% | 73.0% | inhibition at 0.3 µM (ileum; 3 × 10^−7 M, guinea pig ileum, DMSO effect subtracted): 4.64%; inhibition at 0.03 µM (ileum; 3 × 10^−8 M, guinea pig ileum, DMSO effect subtracted): 0.15%; inhibition at 1 µM (ileum; 10^−6 M, guinea pig ileum, DMSO effect subtracted): 9.01%; inhibition at 0.1 µM (ileum; 10^−7 M, guinea pig ileum, DMSO effect subtracted): 2.75%
CC(=O)N(C1Cc2ccccc2C1)C1CC(=O)c2ccccc21 (stereo not drawn) [Compound 6C11, N-2-Indanyl-N-3-indan-1-onylethanamide] | 4.26% | 12.5% | – | – | 8% | 26.0% | –
C=CCN(C1CCc2ccccc21)C1CC(=O)c2ccccc21 (stereo not drawn) [Compound 5C6, 3-(N-prop-2-enyl-N-1-indanylamino)-indan-1-one] | – | – | – | – | – | 52.0% | Percentage Inhibition of Histamine Release (mast cells): 77.77%; inhibition at 0.03 µM (ileum): -1%; inhibition at 0.1 µM (ileum): 0.02%; inhibition at 0.3 µM (ileum): 0.36%; inhibition at 1 µM (ileum): 1.31%; inhibition at 3 µM (ileum): 8.84%; inhibition at 10 µM (ileum): 20.9%
C=CCN(C1Cc2ccccc2C1)C1CC(=O)c2ccccc21 (stereo not drawn) [Compound 6C7, 3-(N-prop-2-enyl-N-2-indanylamino)-indan-1-one] | 89.5% | – | – | – | – | 71.5% | inhibition at 0.03 µM (ileum): 1.16%; inhibition at 0.1 µM (ileum): 3.15%; inhibition at 0.3 µM (ileum): 4.52%; inhibition at 1 µM (ileum): 5.36%; inhibition at 3 µM (ileum): 10.7%; inhibition at 10 µM (ileum): 21.8%
COc1ccc2c(c1)c(CC(=O)O)c(C)n2C(=O)c1ccc(Cl)cc1 [Indomethacin, reference compound] | – | – | – | – | – | 39.6% | –
C=CCN(C1CCc2ccccc21)C1CC(=O)c2ccccc21 (stereo not drawn) [5C6 TR] | 80% | – | 1.5% | 4.97% | – | – | –
